Data set [1] deals with Keap1/Nrf2 (Homo sapiens, UniProt Q14145). Description: Keap1-Nrf2 protein-protein interaction inhibitors, dose response, biochemical, fluorescence polarization, cherry-picked samples (AID 588683). (In general: Fluorescence polarisation rises when a labelled molecule tumbles more slowly, as on binding a larger partner.)
The target in data set [2] is DNA dC->dU-editing enzyme APOBEC-3G (Homo sapiens, UniProt Q9HC16). The format is functional.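 Also: Dose-response counterscreen measuring inhibition of APOBEC3G DNA deaminase activity, run while confirming APOBEC3A inhibitors.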
The target of data set [3] is DNA dC->dU-editing enzyme APOBEC-3A (Homo sapiens, UniProt P31941). Nature of the data set: Dose Response confirmation of small molecule APOBEC3A DNA Deaminase Inhibitors via a fluorescence-based single-stranded DNA deaminase assay. [Related pubchem assays (depositor defined):AID493011, AID493024]. The format is functional.
For data set [4], the target named is UDP-galactopyranose mutase (Mycobacterium tuberculosis, UniProt P9WIQ1). Description: Inhibitors of Mycobacterium tuberculosis UDP-galactopyranose mutase (UGM) enzyme Measured in Biochemical System Using Plate Reader - 2105-02_Inhibitor_Dose_CherryPick_Activity. [Related pubchem assays (depositor defined):AID504439].
Data set [5] deals with T1, ORF 73 (Human herpesvirus 8, UniProt O40947).
T1 sequence (O40947 whole entry): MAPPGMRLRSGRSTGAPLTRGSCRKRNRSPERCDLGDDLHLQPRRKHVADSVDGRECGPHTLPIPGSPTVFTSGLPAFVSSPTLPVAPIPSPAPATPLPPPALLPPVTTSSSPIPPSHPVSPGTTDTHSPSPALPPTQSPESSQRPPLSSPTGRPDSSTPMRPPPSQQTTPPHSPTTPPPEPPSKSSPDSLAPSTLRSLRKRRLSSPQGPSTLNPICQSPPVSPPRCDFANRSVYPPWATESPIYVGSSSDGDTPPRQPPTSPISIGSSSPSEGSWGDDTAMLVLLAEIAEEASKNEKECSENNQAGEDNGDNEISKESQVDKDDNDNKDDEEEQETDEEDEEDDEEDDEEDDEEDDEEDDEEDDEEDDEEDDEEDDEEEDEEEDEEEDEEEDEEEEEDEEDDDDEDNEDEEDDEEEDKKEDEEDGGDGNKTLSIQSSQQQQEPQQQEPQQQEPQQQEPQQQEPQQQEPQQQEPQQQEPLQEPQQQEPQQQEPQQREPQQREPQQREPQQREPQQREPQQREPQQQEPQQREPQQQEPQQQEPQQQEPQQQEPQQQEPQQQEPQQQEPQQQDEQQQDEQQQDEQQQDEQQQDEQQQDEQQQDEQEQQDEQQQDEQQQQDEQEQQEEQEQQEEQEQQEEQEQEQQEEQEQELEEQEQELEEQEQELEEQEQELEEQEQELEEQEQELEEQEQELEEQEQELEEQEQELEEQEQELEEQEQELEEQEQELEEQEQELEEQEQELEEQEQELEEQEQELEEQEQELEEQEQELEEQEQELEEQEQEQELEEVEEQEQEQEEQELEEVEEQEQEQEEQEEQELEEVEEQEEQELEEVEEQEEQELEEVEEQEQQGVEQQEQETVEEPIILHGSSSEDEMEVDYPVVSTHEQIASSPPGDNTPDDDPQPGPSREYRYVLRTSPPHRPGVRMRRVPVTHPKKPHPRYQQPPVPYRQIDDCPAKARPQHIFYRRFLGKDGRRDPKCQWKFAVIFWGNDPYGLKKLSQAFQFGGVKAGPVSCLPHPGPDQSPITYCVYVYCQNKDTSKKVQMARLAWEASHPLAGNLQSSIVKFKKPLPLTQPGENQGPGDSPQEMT
Description: inhibitors of C-LANA binding to LBS DNA, dose response, biochemical, fluorescence polarization, cherry-picked samples (AID 504725).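 Also: fluorescence polarization of a labeled DNA duplex reporting LANA DNA binding; potency is for inhibitors that block LANA binding to the DNA.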 The arrangement: species or system Human gammaherpesvirus 8.

The target in data set [6] is Cytochrome P450 2D6 (Homo sapiens, UniProt P10635).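 Also: CYP2D6 member of a cytochrome P450 panel assay.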
Data set [7] addresses Cytochrome P450 3A4 (Homo sapiens, UniProt P08684).
Data set [8] deals with T2, Mannose-6-phosphate isomerase (Homo sapiens, UniProt P34949).
T2 sequence (P34949 whole entry): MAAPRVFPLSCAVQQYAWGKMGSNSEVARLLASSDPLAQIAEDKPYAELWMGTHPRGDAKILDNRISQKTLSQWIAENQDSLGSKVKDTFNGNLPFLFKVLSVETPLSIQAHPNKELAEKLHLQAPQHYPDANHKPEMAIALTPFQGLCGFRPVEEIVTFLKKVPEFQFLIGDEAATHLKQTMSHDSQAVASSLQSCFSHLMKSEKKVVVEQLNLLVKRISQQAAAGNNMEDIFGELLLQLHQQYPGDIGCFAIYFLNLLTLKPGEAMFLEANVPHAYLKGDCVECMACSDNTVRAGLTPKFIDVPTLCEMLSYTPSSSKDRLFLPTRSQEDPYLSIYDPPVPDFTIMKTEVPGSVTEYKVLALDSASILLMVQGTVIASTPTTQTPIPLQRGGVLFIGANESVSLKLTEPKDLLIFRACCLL
Description: PMI enzyme inhibitors, confirmation, biochemical, fluorescence intensity (AID 1535).

Data set [9] deals with Phosphoethanolamine/phosphocholine phosphatase (Homo sapiens, UniProt Q8TCT1). Nature of the data set: SAR assay for compounds that inhibit PHOSPHO1. [Related pubchem assays (depositor defined):AID1545, AID1565, AID1574].
Data set [10] concerns the target T3, Phosphomannomutase 2 (Homo sapiens, UniProt O15305).
T3 sequence (O15305 whole entry): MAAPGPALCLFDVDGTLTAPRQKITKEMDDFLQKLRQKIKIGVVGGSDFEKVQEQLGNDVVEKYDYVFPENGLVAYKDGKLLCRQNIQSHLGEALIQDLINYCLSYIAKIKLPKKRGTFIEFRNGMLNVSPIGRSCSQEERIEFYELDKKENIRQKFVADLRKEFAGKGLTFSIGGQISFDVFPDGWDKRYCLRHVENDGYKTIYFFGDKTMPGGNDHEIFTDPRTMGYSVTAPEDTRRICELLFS
Description: Counter screen SAR assay for PMM2 inhibitors via a fluorescence intensity assay. [Related pubchem assays (depositor defined):AID1545, AID1574]. On the technique in general: Counterscreens check selectivity or assay interference.

Data set [11] concerns the target Kappa-type opioid receptor (Homo sapiens, UniProt P41145). Description: SAR analysis of small molecule agonists of the kappa opioid receptor via a luminescent beta-arrestin assay - Set 3. [Related pubchem assays (depositor defined):AID1777, AID1785, AID1786, AID1966, AID2133, AID2136, AID2284, AID2500]. It is filed as functional.

Calls of active or inactive are those of the source.

Sequence of Kappa-type opioid receptor (P41145 whole entry): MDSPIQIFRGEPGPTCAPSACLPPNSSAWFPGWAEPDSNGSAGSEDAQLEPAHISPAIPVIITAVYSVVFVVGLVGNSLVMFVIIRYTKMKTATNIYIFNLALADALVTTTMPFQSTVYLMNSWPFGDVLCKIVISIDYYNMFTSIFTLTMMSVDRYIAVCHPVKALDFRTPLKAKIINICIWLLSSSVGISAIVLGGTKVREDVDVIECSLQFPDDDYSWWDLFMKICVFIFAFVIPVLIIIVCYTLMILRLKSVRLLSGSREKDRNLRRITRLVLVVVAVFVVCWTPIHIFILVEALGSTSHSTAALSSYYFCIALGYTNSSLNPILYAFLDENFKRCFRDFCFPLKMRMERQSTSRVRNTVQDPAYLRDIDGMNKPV
Sequence of Phosphoethanolamine/phosphocholine phosphatase (Q8TCT1 whole entry): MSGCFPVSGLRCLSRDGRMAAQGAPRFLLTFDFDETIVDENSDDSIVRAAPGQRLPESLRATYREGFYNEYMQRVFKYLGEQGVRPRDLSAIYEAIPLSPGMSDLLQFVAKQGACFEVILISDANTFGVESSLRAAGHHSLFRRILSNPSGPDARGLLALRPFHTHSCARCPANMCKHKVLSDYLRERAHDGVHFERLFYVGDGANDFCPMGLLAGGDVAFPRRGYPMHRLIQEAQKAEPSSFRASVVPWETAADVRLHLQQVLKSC
Sequence of DNA dC->dU-editing enzyme APOBEC-3G (Q9HC16 whole entry): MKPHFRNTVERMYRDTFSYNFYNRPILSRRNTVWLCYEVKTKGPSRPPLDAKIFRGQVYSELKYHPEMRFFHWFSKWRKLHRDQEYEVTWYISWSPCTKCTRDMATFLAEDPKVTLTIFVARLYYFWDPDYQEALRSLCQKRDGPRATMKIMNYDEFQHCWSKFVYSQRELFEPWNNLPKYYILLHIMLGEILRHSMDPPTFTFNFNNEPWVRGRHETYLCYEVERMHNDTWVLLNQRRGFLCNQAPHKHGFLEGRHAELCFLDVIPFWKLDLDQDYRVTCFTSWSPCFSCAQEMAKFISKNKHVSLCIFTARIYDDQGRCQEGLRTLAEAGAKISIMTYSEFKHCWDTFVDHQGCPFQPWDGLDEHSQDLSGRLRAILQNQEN
Sequence of Keap1/Nrf2 (Q16236 whole entry): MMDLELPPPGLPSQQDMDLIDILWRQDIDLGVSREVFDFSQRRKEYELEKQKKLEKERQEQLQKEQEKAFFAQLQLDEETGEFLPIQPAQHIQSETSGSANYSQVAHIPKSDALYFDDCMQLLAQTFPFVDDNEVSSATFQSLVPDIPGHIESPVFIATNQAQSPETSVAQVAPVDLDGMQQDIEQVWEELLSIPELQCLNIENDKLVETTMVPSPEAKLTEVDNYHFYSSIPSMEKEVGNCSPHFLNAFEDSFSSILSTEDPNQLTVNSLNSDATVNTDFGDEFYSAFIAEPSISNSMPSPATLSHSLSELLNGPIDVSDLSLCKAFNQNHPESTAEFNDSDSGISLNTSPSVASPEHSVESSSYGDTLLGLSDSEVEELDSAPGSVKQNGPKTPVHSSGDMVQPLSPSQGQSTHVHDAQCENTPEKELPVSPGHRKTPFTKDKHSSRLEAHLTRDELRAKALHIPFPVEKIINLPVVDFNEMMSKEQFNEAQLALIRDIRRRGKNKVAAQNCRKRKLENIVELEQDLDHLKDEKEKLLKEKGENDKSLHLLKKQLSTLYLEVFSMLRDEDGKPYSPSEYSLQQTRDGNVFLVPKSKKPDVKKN
Sequence of Keap1/Nrf2 (Q14145 whole entry): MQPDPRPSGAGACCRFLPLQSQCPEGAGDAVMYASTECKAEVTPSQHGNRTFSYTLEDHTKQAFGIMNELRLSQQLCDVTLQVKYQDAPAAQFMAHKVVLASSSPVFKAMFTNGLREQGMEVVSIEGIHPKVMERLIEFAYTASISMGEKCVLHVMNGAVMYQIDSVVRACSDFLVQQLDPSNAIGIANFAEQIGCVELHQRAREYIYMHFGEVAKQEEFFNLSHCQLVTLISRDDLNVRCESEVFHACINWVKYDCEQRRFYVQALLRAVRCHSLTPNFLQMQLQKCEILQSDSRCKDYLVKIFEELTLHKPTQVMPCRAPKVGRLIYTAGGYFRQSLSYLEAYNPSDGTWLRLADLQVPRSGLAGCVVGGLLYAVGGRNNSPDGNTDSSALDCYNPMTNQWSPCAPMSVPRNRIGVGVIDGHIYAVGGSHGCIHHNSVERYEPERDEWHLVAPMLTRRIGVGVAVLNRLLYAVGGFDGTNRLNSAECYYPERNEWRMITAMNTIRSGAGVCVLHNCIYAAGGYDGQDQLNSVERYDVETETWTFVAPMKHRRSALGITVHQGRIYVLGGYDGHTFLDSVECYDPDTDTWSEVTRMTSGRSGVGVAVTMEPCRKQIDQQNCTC
Sequence of DNA dC->dU-editing enzyme APOBEC-3A (P31941 whole entry): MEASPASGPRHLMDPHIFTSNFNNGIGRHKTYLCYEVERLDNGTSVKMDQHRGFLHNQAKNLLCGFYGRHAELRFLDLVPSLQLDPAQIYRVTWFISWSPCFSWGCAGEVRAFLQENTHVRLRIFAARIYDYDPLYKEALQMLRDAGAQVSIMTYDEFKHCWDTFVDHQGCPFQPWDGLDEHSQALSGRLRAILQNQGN
Sequence of UDP-galactopyranose mutase (P9WIQ1 whole entry): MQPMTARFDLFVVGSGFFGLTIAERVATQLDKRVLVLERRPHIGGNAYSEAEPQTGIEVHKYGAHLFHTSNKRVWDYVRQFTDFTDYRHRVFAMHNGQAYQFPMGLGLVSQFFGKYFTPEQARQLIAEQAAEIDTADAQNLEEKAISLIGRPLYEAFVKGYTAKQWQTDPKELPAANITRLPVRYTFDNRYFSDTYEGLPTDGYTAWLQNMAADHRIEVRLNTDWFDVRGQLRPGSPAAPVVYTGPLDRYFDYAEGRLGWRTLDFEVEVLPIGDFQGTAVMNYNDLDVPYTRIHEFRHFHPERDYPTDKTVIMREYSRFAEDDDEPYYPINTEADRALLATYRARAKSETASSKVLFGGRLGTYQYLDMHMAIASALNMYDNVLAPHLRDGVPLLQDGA
Sequence of Cytochrome P450 2D6 (P10635 whole entry): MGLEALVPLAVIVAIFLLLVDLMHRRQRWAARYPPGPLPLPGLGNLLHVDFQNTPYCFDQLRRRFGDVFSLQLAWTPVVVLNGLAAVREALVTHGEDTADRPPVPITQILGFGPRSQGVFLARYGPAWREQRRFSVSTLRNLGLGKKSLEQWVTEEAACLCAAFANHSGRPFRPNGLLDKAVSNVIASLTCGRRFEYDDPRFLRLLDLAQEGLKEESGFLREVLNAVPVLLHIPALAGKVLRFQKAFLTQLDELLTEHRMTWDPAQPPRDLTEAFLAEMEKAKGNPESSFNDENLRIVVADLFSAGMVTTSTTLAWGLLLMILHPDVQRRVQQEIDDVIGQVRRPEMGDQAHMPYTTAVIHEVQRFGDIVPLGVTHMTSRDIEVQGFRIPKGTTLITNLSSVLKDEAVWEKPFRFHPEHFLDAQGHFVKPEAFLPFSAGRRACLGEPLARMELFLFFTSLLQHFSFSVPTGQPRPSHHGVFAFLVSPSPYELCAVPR
Sequence of Cytochrome P450 3A4 (P08684 whole entry): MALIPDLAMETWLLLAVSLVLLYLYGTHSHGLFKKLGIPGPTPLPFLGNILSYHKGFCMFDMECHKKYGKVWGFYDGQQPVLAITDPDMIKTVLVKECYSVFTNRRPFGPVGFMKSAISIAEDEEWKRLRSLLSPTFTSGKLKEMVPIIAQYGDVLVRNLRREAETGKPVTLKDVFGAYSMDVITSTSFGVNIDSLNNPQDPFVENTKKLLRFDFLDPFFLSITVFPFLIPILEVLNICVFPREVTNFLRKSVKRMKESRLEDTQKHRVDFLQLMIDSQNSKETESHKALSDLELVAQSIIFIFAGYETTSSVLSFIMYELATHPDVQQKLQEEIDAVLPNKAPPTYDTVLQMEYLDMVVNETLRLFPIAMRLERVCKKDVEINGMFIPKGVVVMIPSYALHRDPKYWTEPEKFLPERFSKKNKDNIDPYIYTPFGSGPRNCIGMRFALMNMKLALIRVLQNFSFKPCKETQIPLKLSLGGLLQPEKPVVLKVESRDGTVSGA

On to `COC(=O)C[n+]1cccc2ccccc21`, for which the AC50 is 20.8 µM (active) in data set [1], 35.7 µM (active) in [4] and 6.51 µM (active) in [5]. The half-inhibitory concentration (IC50) is 4.46 µM (active) in data set [2] and 2.81 µM (active) in data set [3].
On to `Cc1ccc(CC(=O)N2CC(C)OC(C)C2)cc1` (stereo unspecified), for which the AC50 result in data set [6] and in [7] was “inconclusive” throughout.
`CCN(CC)S(=O)(=O)c1ccc(-n2sc3ccccc3c2=O)cc1`: the figures for the IC50 in data set [8], in [9] and in data set [10] were > 50 µM (inactive), 6.21 µM (inactive) and > 100 µM (inactive), respectively.
As for `Brc1ccc(-c2nnc(SCc3ccccc3)n2Cc2ccco2)cc1`, the EC50 in [11] is > 20 µM (inactive).

By AC50 is commonly meant the concentration at which the activity in the assay is half-maximal. As usually defined, the IC50 is the concentration that inhibits the measured activity by half. What is called EC50 is the concentration needed to bring the measured effect to its halfway point.

Values taken from ChEMBL document CHEMBL1201862, “PubChem BioAssay data set” (2004).
